# Laboratory results: patent US6369114B1, “Administration of an α2-adrenergic receptor agonist to enhance cardiopulmonary resuscitation” (Institute of Critical Care Medicine, priority 1999, dated 2002)
# What was measured:
# [1] = immediately following administration, under spontaneous circulation and during CPR; cited from earlier work
# [2] = tested on: post-resuscitation myocardial dysfunction, ventricular arrhythmias and survival; test: Ventricular fibrillation cardiac arrest with precordial compression and defibrillation in rats (Example 1); assay type: in vivo, Sprague-Dawley rats; conditions: for duration of post-resuscitation survival: VF untreated 8 min, drug after 2 min precordial compression, α-methylnorepinephrine 100 μg/kg, epinephrine 30 μg/kg, FIG. 4; for resuscitation outcome: defibrillation attempted 4 min after drug
# Description: Sprague-Dawley rats (450-570 g) were fasted overnight except for free access to water. The animals were anesthetized by intraperitoneal injection of 45 mg/kg pentobarbital sodium supplemented with additional doses of 10 mg/kg at hourly intervals, except that no pentobarbital was administered for 30 minutes before induction of cardiac arrest. The trachea was orally intubated with a 14-gauge cannula (Quick-Cath, Vicra division, Travenol Laboratory) mounted on a blunt needle with a 145° angled tip. For measurement of the partial pressure of carbon dioxide in the endotracheum (PETCO2), the respiratory gas was sampled through a side manifold interposed between the tracheal cannula and the respirator. The PCO2 was measured with a side-stream infrared CO2 analyzer (model 200, Instrumentation Laboratories). For measurement of left ventricular pressure, and both dP/dt40 (the rate of left ventricular pressure increase measured at a left ventricular pressure of 40 mm Hg, an indicator of isovolemic contractility) and negative dP/dt (the rate of left ventricular pressure decline, a measure of myocardial relaxation), a Teflon catheter (UTX 022; internal diameter, 0.6 mm; outer diameter, 0.97 mm; length 8 cm; Becton Dickinson) was advanced into the left ventricle from the right carotid artery. […] Guided by pressure monitoring, the catheter was slowly withdrawn into the right atrium. Right atrial pressure was measured with reference to the midchest with a high-sensitivity transducer (P-23-9b, Spectramed). This catheter was also used to sample blood from the right atrium. Through the right external jugular vein, a 3F pediatric radial artery catheter (model C-PUM-301J, Cook) was advanced into the right atrium. A precurved guide wire supplied with the catheter was then advanced through the catheter into the right ventricle until an endocardial ECG was observed. Through the right femoral artery, a Teflon catheter (UTX 022, Becton Dickinson) was advanced into the thoracic aorta for measurement of aortic pressure with a model TNF-R transducer (Abbott Critical Care). […] Rectal temperature was measured continuously with a rectal thermistor. Conventional lead II ECGs were recorded with skin electrodes (model E220, In-vivo Metric).
# Ventricular fibrillation (VF) was induced and untreated for 8 minutes. Precordial compression (PC) was then initiated. After 2 minutes of precordial compression, animals were randomized to receive either the selective α2-adrenergic agent, α-methylnorepinephrine (100 μg/kg; catalog number M133, Research Biochemicals International; abbreviated “α-methylnorepi.”), epinephrine (30 μg/kg; abbreviated “epi.”) or saline placebo. Defibrillation (DF) was attempted 4 min. later. […] Baseline (BL) or control values are shown at the left of the figures.
# [3] = tested on: post-resuscitation left ventricular function and ventricular arrhythmias; test: Ventricular fibrillation cardiac arrest with precordial compression and defibrillation in pigs (Example 2); assay type: in vivo, Male domestic pigs; conditions: for resuscitation outcome: defibrillation attempted 4 min after drug
# Description: Male domestic pigs weighing between 40 and 45 kg were fasted overnight except for free access to water. Anesthesia was initiated by intramuscular injection of ketamine (20 mg/kg) and completed by ear vein injection of sodium pentobarbital (30 mg/kg). Additional doses of sodium pentobarbital (8 mg/kg) were injected at intervals of 1 h to maintain anesthesia. A cuffed endotracheal tube was advanced into the trachea. Animals were mechanically ventilated with a volume-controlled ventilator (Model MA-1; Puritan-Bennett, Carlsbad, Calif.). End tidal PCO2 (PETCO2) was monitored with an infrared analyzer (Model 01R-7101A; Nihon Kohden Corp., Tokyo, Japan). Respiratory frequency was adjusted to maintain PETCO2 between 35 and 40 mm Hg.
# For the measurement of left ventricular function, a 5-MHZ single plane with 5 MHZ continuous-wave Doppler transesophageal echocardiographic transducer with four-way flexure (Model 21363A; Hewlett-Packard Co., Medical Products Group, Andover Mass.) was advanced from the incisor teeth into the esophagus for a distance of approximately 35 cm. For the measurement of aortic pressure, a fluid-filled catheter was advanced from the left femoral artery into the thoracic aorta. For the measurement of right atrial pressure, pulmonary arterial pressures and blood temperature, a 7-F, pentalumen, thermodilation-tip catheter was advanced from the left femoral vein and flow directed into the pulmonary artery. For inducing ventricular fibrillation (VF), a 5-F pacing catheter (EP Technologies, Inc., Mountain View, Calif.) was advanced from the right cephalic vein into the right ventricle until an electrocardiographic current of injury was recorded.
# Ventricular fibrillation (VF) was induced and untreated for 7 minutes. Precordial compression (PC) was then initiated. After 2 minutes of precordial compression, animals were randomized to receive either the selective α2-adrenergic agent, α-methylnorepinephrine (100 μg/kg; catalog number M133, Research Biochemicals International) or epinephrine (30 μg/kg). Defibrillation was attempted 4 min. later. […] A lower incidence of post-resuscitation ventricular arrhythmias was again observed with those animals receiving α-methylnorepinephrine.
# [4] = compared with epinephrine; cited from earlier work
smiles,measurement,setting,value
CNC[C@H](O)c1ccc(O)c(O)c1 [epinephrine],decrease of end tidal CO2 (ETCO2),[1],50%
same,duration of post-resuscitation survival,[2],19 h
same,resuscitation outcome,[2],successfully resuscitated
same,resuscitation outcome,[3],successfully resuscitated
COc1ccc(OC)c(C(O)C(C)N)c1 (centres unmarked) [methoxamine],effectiveness for restoring spontaneous circulation,[4],as effective as epinephrine
CNC[C@H](O)c1cccc(O)c1 [phenylephrine],effectiveness for restoring spontaneous circulation,[4],as effective as epinephrine
"CC(N)[C@H](O)c1ccc(O)c(O)c1 (stereo partly drawn) [α-methylnorepinephrine, α-(1-aminoethyl),3,4-dihydroxybenzyl alcohol]",post-resuscitation myocardial dysfunction as measured by dp/dt40,"[2]; 100 μg/kg, vs epinephrine or saline placebo, FIG. 1",significantly less severe
same,post-resuscitation myocardial dysfunction as measured by negative dP/dt,"[2]; 100 μg/kg, vs epinephrine or saline placebo, FIG. 2",significantly less severe
same,post-resuscitation myocardial dysfunction as measured by cardiac index (CI),"[2]; 100 μg/kg, vs epinephrine or saline placebo, FIG. 3",significantly less severe
same,duration of post-resuscitation survival,[2],72 h
same,resuscitation outcome,[2],successfully resuscitated
same,incidence of post-resuscitation ventricular arrhythmias,[2]; α-methylnorepinephrine 100 μg/kg vs epinephrine 30 μg/kg or saline placebo,significantly lower
same,post-resuscitation left ventricular stroke volume,"[3]; 100 μg/kg vs epinephrine 30 μg/kg, transesophageal echo-Doppler, FIG. 5",markedly improved
same,post-resuscitation ejection fraction,"[3]; 100 μg/kg vs epinephrine 30 μg/kg, transesophageal echo-Doppler, FIG. 6",markedly improved
same,post-resuscitation cardiac output,"[3]; 100 μg/kg vs epinephrine 30 μg/kg, transesophageal echo-Doppler, FIG. 7",markedly improved
same,incidence of post-resuscitation ventricular arrhythmias,"[3]; VF untreated 7 min, α-methylnorepinephrine 100 μg/kg vs epinephrine 30 μg/kg",lower
same,resuscitation outcome,[3],successfully resuscitated
